Measurements taken from patent US20030170829A1 (priority 2001, published 2003).
Entries after “also recorded” stand apart in the source; their conditions may differ. Read-outs that look alike come from different tables or passages of the source.

Columns and labels:
AFDH [1] = system: AFDH
AFDH [2] = format: biochemical, Anthracobia melaloma; details: for Relative activity (%): None = 100
AFDH [3] = system: AFDH; remark: listed apart in the source
[4] = substrate 100 μl, 12.79 μmol/ml
[5] = substrate 130 μl, 16.63 μmol/ml
[6] = substrate 160 μl, 20.46 μmol/ml
[7] = substrate 180 μl, 23.02 μmol/ml
[8] = substrate 200 μl, 25.58 μmol/ml
[9] = substrate 230 μl, 29.42 μmol/ml
[10] = substrate 260 μl, 33.25 μmol/ml
[11] = substrate 300 μl, 38.37 μmol/ml
[12] = substrate 400 μl, 51.16 μmol/ml
[13] = substrate 450 μl, 57.56 μmol/ml
[14] = substrate 480 μl, 61.39 μmol/ml
[15] = substrate 100 μl, 24.75 μmol/ml
[16] = substrate 120 μl, 29.69 μmol/ml
[17] = substrate 150 μl, 37.12 μmol/ml
[18] = substrate 170 μl, 42.07 μmol/ml
[19] = substrate 200 μl, 49.49 μmol/ml
[20] = substrate 250 μl, 61.86 μmol/ml
[21] = substrate 300 μl, 74.24 μmol/ml

Structure (SMILES): O=C1CO[C@H](CO)[C@@H](O)[C@@H]1O [AF, 1,5-anhydro-D-fructose]
- Km (AFDH [1]; read-out: apparent Km (concentration that yielded half of the maximum activity), substrate AF, pH 6.7, 22 °C): 12.6 mM
- Activity units (AFDH [1]; substrate 5 μl, 0.64 μmol/ml): 39.33 units
- OD263 (AFDH [1]; substrate 5 μl, 0.64 μmol/ml): 0.059
- Activity units (AFDH [1]; substrate 10 μl, 1.28 μmol/ml): 62.67 units
- OD263 (AFDH [1]; substrate 10 μl, 1.28 μmol/ml): 0.094
- Activity units (AFDH [1]; substrate 20 μl, 2.56 μmol/ml): 101.33 units
- OD263 (AFDH [1]; substrate 20 μl, 2.56 μmol/ml): 0.152
- Activity units (AFDH [1]; substrate 30 μl, 3.84 μmol/ml): 182.67 units
- OD263 (AFDH [1]; substrate 30 μl, 3.84 μmol/ml): 0.274
- Activity units (AFDH [1]; substrate 40 μl, 5.12 μmol/ml): 210.67 units
- OD263 (AFDH [1]; substrate 40 μl, 5.12 μmol/ml): 0.316
- Activity units (AFDH [1]; substrate 50 μl, 6.40 μmol/ml): 218.67 units
- OD263 (AFDH [1]; substrate 50 μl, 6.40 μmol/ml): 0.328
- Activity units (AFDH [1]; substrate 60 μl, 0.46 μmol/ml): 256.00 units
- OD263 (AFDH [1]; substrate 60 μl, 0.46 μmol/ml): 0.384
- Activity units (AFDH [1]; substrate 70 μl, 8.95 μmol/ml): 327.33 units
- OD263 (AFDH [1]; substrate 70 μl, 8.95 μmol/ml): 0.491
- Activity units (AFDH [1]; [4]): 412.00 units
- OD263 (AFDH [1]; [4]): 0.618
- Activity units (AFDH [1]; [5]): 456.67 units
- OD263 (AFDH [1]; [5]): 0.685
- Activity units (AFDH [1]; [6]): 511.33 units
- OD263 (AFDH [1]; [6]): 0.767
- Activity units (AFDH [1]; [7]): 549.33 units
- OD263 (AFDH [1]; [7]): 0.824
- Activity units (AFDH [1]; [8]): 561.33 units
- OD263 (AFDH [1]; [8]): 0.842
- Activity units (AFDH [1]; [9]): 594.67 units
- OD263 (AFDH [1]; [9]): 0.892
- Activity units (AFDH [1]; [10]): 609.33 units
- OD263 (AFDH [1]; [10]): 0.914
- Activity units (AFDH [1]; [11]): 646.67 units
- OD263 (AFDH [1]; [11]): 0.97
- Activity units (AFDH [1]; [12]): 738.67 units
- OD263 (AFDH [1]; [12]): 1.108
- Activity units (AFDH [1]; [13]): 767.33 units
- OD263 (AFDH [1]; [13]): 1.151
- Activity units (AFDH [1]; [14]): 772.67 units
- OD263 (AFDH [1]; [14]): 1.159
- Vmax (AFDH [1]; substrate AF, pH 6.7, 22 °C): 769 units

Structure (SMILES): [Ca+2].[Cl-].[Cl-] [CaCl2]
- concentration found to increase the activity with a factor of two (AFDH [2]): 10 mM
- effect on AFDH activity (AFDH [2]): increased
- Activity units (AFDH [2]; effector 5 mM): 1245.0 units
- OD263 (AFDH [2]; effector 5 mM): 0.747
- Activity units (AFDH [2]; effector 10 mM): 1442.7 units
- OD263 (AFDH [2]; effector 10 mM): 0.865
- Activity units (AFDH [2]; effector 15 mM): 1455.0 units
- OD263 (AFDH [2]; effector 15 mM): 0.873
- Activity units (AFDH [2]; effector 20 mM): 1531.7 units
- OD263 (AFDH [2]; effector 20 mM): 0.919
- Activity units (AFDH [2]; effector 25 mM): 1561.7 units
- OD263 (AFDH [2]; effector 25 mM): 0.937
- Activity units (AFDH [2]; effector 30 mM): 1601.7 units
- OD263 (AFDH [2]; effector 30 mM): 0.961
- Activity units (AFDH [2]; effector 40 mM): 1473.3 units
- OD263 (AFDH [2]; effector 40 mM): 0.884
- Activity units (AFDH [2]; effector 50 mM): 1466.7 units
- OD263 (AFDH [2]; effector 50 mM): 0.880

Structure (SMILES): O=CC(=O)[C@@H](O)[C@H](O)[C@H](O)CO [D-glucosone]
- Km (AFDH [3]; read-out: apparent Km (concentration that yielded half of the maximum activity), substrate D-glucosone, pH 6.7, 22 °C): 27.6 mM
- Activity units (AFDH [3]; substrate 5 μl, 1.24 μmol/ml): 33.33 units
- OD265 (AFDH [3]; substrate 5 μl, 1.24 μmol/ml): 0.050
- Activity units (AFDH [3]; substrate 10 μl, 2.47 μmol/ml): 36.00 units
- OD265 (AFDH [3]; substrate 10 μl, 2.47 μmol/ml): 0.054
- Activity units (AFDH [3]; substrate 20 μl, 4.95 μmol/ml): 57.33 units
- OD265 (AFDH [3]; substrate 20 μl, 4.95 μmol/ml): 0.086
- Activity units (AFDH [3]; substrate 30 μl, 7.42 μmol/ml): 79.30 units
- OD265 (AFDH [3]; substrate 30 μl, 7.42 μmol/ml): 0.119
- Activity units (AFDH [3]; substrate 40 μl, 9.90 μmol/ml): 101.33 units
- OD265 (AFDH [3]; substrate 40 μl, 9.90 μmol/ml): 0.152
- Activity units (AFDH [3]; substrate 50 μl, 12.37 μmol/ml): 114.00 units
- OD265 (AFDH [3]; substrate 50 μl, 12.37 μmol/ml): 0.171
- Activity units (AFDH [3]; substrate 60 μl, 14.85 μmol/ml): 140.67 units
- OD265 (AFDH [3]; substrate 60 μl, 14.85 μmol/ml): 0.211
- Activity units (AFDH [3]; substrate 70 μl, 17.32 μmol/ml): 164.67 units
- OD265 (AFDH [3]; substrate 70 μl, 17.32 μmol/ml): 0.247
- Activity units (AFDH [3]; substrate 80 μl, 19.80 μmol/ml): 180.67 units
- OD265 (AFDH [3]; substrate 80 μl, 19.80 μmol/ml): 0.271
- Activity units (AFDH [3]; substrate 90 μl, 22.27 μmol/ml): 215.30 units
- OD265 (AFDH [3]; substrate 90 μl, 22.27 μmol/ml): 0.323
- Activity units (AFDH [3]; [15]): 230.67 units
- OD265 (AFDH [3]; [15]): 0.346
- Activity units (AFDH [3]; [16]): 262.67 units
- OD265 (AFDH [3]; [16]): 0.379
- Activity units (AFDH [3]; [17]): 310.20 units
- OD265 (AFDH [3]; [17]): 0.394
- Activity units (AFDH [3]; [18]): 352.62 units
- OD265 (AFDH [3]; [18]): 0.529
- Activity units (AFDH [3]; [19]): 394.62 units
- OD265 (AFDH [3]; [19]): 0.592
- Activity units (AFDH [3]; [20]): 407.33 units
- OD265 (AFDH [3]; [20]): 0.611
- Activity units (AFDH [3]; [21]): 414.67 units
- OD265 (AFDH [3]; [21]): 0.622
- Vmax (AFDH [3]; substrate D-glucosone, pH 6.7, 22 °C): 416 units

Structure (SMILES): O[C@@H](CS)[C@@H](O)CS [DTT]
- effect on AFDH activity (AFDH [2]): inhibited
- Relative activity (%) (AFDH [2]; inhibitor 10 mM): 57%

Structure (SMILES): O=C(O)CN(CCN(CC(=O)O)CC(=O)O)CC(=O)O [EDTA]
- effect on AFDH activity (AFDH [2]): inhibited
- Relative activity (%) (AFDH [2]; inhibitor 10 mM): 59%
- Relative activity (%) (AFDH [2]; inhibitor 50 mM): 16%

Structure (SMILES): [Cl-].[Cl-].[Mg+2] [MgCl2]
- concentration found to increase the activity with a factor of two (AFDH [2]): 25 mM
- effect on AFDH activity (AFDH [2]): increased
- Activity units (AFDH [2]; effector 5 mM): 1053.3 units
- OD263 (AFDH [2]; effector 5 mM): 0.632
- Activity units (AFDH [2]; effector 10 mM): 1228.3 units
- OD263 (AFDH [2]; effector 10 mM): 0.737
- Activity units (AFDH [2]; effector 15 mM): 1255.0 units
- OD263 (AFDH [2]; effector 15 mM): 0.753
- Activity units (AFDH [2]; effector 20 mM): 1295.0 units
- OD263 (AFDH [2]; effector 20 mM): 0.777
- Activity units (AFDH [2]; effector 25 mM): 1316.7 units
- OD263 (AFDH [2]; effector 25 mM): 0.790
- Activity units (AFDH [2]; effector 30 mM): 1291.7 units
- OD263 (AFDH [2]; effector 30 mM): 0.775
- Activity units (AFDH [2]; effector 40 mM): 1243.3 units
- OD263 (AFDH [2]; effector 40 mM): 0.746
- Activity units (AFDH [2]; effector 50 mM): 1186.7 units
- OD263 (AFDH [2]; effector 50 mM): 0.712

Structure (SMILES): [Cl-].[Na+] [NaCl]
- concentration found to increase the activity with a factor of two (AFDH [2]): 50 mM
- Activity units (AFDH [2]; NaCl 0.05 M): 1263.3 units
- OD263 (AFDH [2]; NaCl 0.05 M): 0.758
- Activity units (AFDH [2]; NaCl 0.1 M): 1348.3 units
- OD263 (AFDH [2]; NaCl 0.1 M): 0.809
- Activity units (AFDH [2]; NaCl 0.15 M): 1381.7 units
- OD263 (AFDH [2]; NaCl 0.15 M): 0.829
- Activity units (AFDH [2]; NaCl 0.2 M): 1415.0 units
- OD263 (AFDH [2]; NaCl 0.2 M): 0.849
- Activity units (AFDH [2]; NaCl 0.3 M): 1453.3 units
- OD263 (AFDH [2]; NaCl 0.3 M): 0.872
- Activity units (AFDH [2]; NaCl 0.4 M): 1338.3 units
- OD263 (AFDH [2]; NaCl 0.4 M): 0.803
- Activity units (AFDH [2]; NaCl 0.5 M): 1301.7 units
- OD263 (AFDH [2]; NaCl 0.5 M): 0.781
- Activity units (AFDH [2]; NaCl 0.6 M): 1286.7 units
- OD263 (AFDH [2]; NaCl 0.6 M): 0.772
- Activity units (AFDH [2]; NaCl 0.7 M): 1271.7 units
- OD263 (AFDH [2]; NaCl 0.7 M): 0.763
- Activity units (AFDH [2]; NaCl 0.8 M): 1223.3 units
- OD263 (AFDH [2]; NaCl 0.8 M): 0.734
- Activity units (AFDH [2]; NaCl 0.9 M): 1141.7 units
- OD263 (AFDH [2]; NaCl 0.9 M): 0.685
- effect on AFDH activity (AFDH [2]; listed as Na^+): increased; also recorded: positive effect

Structure (SMILES): [Cl-].[Cl-].[Zn+2] [ZnCl2]
- effect on AFDH activity (AFDH [2]): inhibited
- Activity units (AFDH [2]; effector 5 mM): 551.7 units
- OD263 (AFDH [2]; effector 5 mM): 0.331
- Activity units (AFDH [2]; effector 10 mM): 435.0 units
- OD263 (AFDH [2]; effector 10 mM): 0.261
- Activity units (AFDH [2]; effector 15 mM): 315.0 units
- OD263 (AFDH [2]; effector 15 mM): 0.189
- Activity units (AFDH [2]; effector 20 mM): 241.7 units
- OD263 (AFDH [2]; effector 20 mM): 0.145
- Activity units (AFDH [2]; effector 25 mM): 220.0 units
- OD263 (AFDH [2]; effector 25 mM): 0.132
- Activity units (AFDH [2]; effector 30 mM): 201.7 units
- OD263 (AFDH [2]; effector 30 mM): 0.121
- Activity units (AFDH [2]; effector 40 mM): 158.3 units
- OD263 (AFDH [2]; effector 40 mM): 0.095
- Activity units (AFDH [2]; effector 50 mM): 135.0 units
- OD263 (AFDH [2]; effector 50 mM): 0.081
- Relative activity (%) (AFDH [2]; inhibitor 10 mM): 52.52%
